The source of these data is patent US8420100B2, “Tumor suppressor activating polypeptides and uses thereof” (Department of Biotechnology, priority 2006, dated 2013).

Assay [1] concerns the target T1, p53 (serine-15 phosphorylation) (Homo sapiens, UniProt P04637).
T1 construct: HEK 293 (p53^+/+) cells; endogenous in cells; host or cells: HEK 293
Description: Western blotting for total p53 and phospho serine-15 p53 in peptide-treated HEK 293 cells. Format: cell-based. The following applies: HEK 293, TAT-PTD alone 50-100 μM. On the procedure: P44 peptide controls the activity of cell cycle regulatory proteins: The minimal dose of P44 peptide that was functionally effective in activating p53 was evaluated by incubating HEK 293 cells with varying concentrations of P44 peptide (1-100 μM) (FIG. 3A) and after 12 h of incubation, protein lysates were prepared and processed for immunoblotting with total p53 (DO-1) and p53 ser-15 phospho-specific antibodies. […] However, there was a 4.5-fold increase in the expression of phosphorylated p53 (pSerine-15 p53) in P44 peptide-treated cells (FIG. 3A, lanes 2-6). To exclude the possibility that p53 activation is an effect of the protein transduction domain of HIV-1 TAT protein, similar set of experiment was performed using TAT-PTD peptide alone (consisting of only the 11-mer TAT-sequence). […] This observation reconfirmed that the RS domain (288-350 aa) of SMAR1 could exclusively activate p53 by mediating its phosphorylation specifically at serine-15 residue. Serine-15 phosphorylation of p53 is associated with its increased transcription efficiency, decreased affinity for MDM2, and its increased nuclear retention. One of the target genes activated by p53 is p21, an inhibitor of a subset of the cyclin-dependent kinases including cdc-2 (Sherr, C. J., and Roberts, J. M. (1999) Genes Dev. 13, 1501-1512). To evaluate the significance of peptide-mediated p53 activation, P44 peptide-treated lysates were further checked for tyrosine 15 phosphorylation of cdc2. […] HEK 293 cells were treated with SM peptide and checked for p53 as well as pcdc-2 levels.
Serine 347 residue of SMAR1: critical for mediating the effects of full-length SMAR1: Once it was established that the serine motif (SSSSYS) plays a pivotal role in SMAR1-mediated p53 activation, it got necessary to identify the serine residue within this motif that might be necessary in mediating these effects. To identify the critical serine residue within P44 peptide, various point-mutant peptides were custom synthesized, that varied with respect to the position of serine residue that was mutated (Table 1). To evaluate the functionality of mutant chimeric TAT-SMAR1 peptides [PS347A, PS348A, PS349A, PS350A and RS mutant (SM)] in comparison to the TAT-SMAR1 WT peptide (P44), HEK 293 cells were treated with 10 μM concentration of either of the peptides and protein lysates were prepared after 12 h incubation period. The lysates were then processed for immunoblotting with pSer-15 p53 and pcdc-2 antibodies. […] However, this was not the case with other mutated peptides. When the alanine was replaced back to serine at the 347 residue (FIG. 4A, lanes 3-5), the functionality of the peptide was restored as observed with increase in pcdc-2 levels. […] However, in case of SM (where serine residues from 347-350 were replaced by alanines) treated cells (FIG. 4A, lane 7), there was no difference in the pSer-15 p53 as well as pcdc-2 levels compared to either untreated or PS347A treated cells (FIG. 4A, lanes 1 and 2, respectively).
FIG. 3. P44 peptide activates p53-mediated cell cycle pathway. A, HEK 293 cells were seeded at a density of 5×10^5 and after 24 h, was incubated with increasing concentrations of the TAT-SMAR1 WT (P44) peptide. Protein lysates were prepared and then immunoblotted with antibodies to total p53, phospho serine-15. B, The same set of experiment was repeated with TAT PTD peptide representing the PTD carrier sequence alone and immunoblotted with phospho serine-15, in comparison of P44 treated cells. C, The status of phospho cdc-2 was further analyzed in P44 peptide treated cells. Total […] was used as an internal control. D, The same set of experiments were again repeated using TAT-SMAR1 RS mutant (SM) peptide and whole cell lysates were probed for phospho p53 serine-15 and pcdc-2 antibodies. […] was used as a loading control.
FIG. 4. Serine 347 residue of SMAR1 mediates p53 activation and stabilization. […]

For assay [2], the system named is B16F1 mouse melanoma cells. Description: B16F1 melanoma tumor regression in nude mice. The class given is in vivo. The following applies: nude mice, 200 μg/mouse thrice a week, 4 weeks. On the procedure:
P44 peptide: A potent tumor regressor: To test whether the differences in SMAR1 derived peptide-induced activation of p53 translated to differences in drug sensitivity in vivo, B16F1 mouse melanoma cells were subcutaneously grafted into athymic nude mice, and tumor growth together with therapeutic sensitivity was monitored. Once the tumor nodule was established into the mouse, P44 peptide was injected in the tumor localized areas at a physiological dose of 200 μg/mouse thrice a week. The treatment was continued for 4 weeks. In a parallel experiment, either TAT PTD or TAT-SMAR1 RS mutant peptide, SM (FIGS. 6A and B, respectively) was injected in tumor bearing mice to be used as control.
FIG. 6D-F corresponds to the magnified tumor images of FIG. 6A-C, respectively. […] Thus, P44 peptide mimics the function of full-length SMAR1 in drastically reducing the tumor growth.
FIG. 6. Tumor regression by TAT-SMAR1 WT peptide. A, Nude mice were allowed to develop tumors by subcutaneously injecting B 16F1 mouse melanoma cells. Mice with size-matched tumors were then randomized into three treatment groups (five animals per group); TAT PTD alone (panel A), TAT-SMART RS mutant (SM) (panel B) and TAT-SMAR1 WT (P44) (panel C). Panels D, E and F correspond to the magnified images of panels A, B and C, respectively. Mice were treated with either of the peptides at a dose of 200 μg/mice/thrice a week for consecutive 4 weeks. The tumors were then weighed and plotted for each mouse in all the treatment groups (panel G).
Animal model for tumorgenesis: B16F1 mouse melanoma cells in the exponential growth phase were trypsinized (Invitrogen) and washed twice with PBS. Cell number and viability was assessed and cell cultures with viability >90% were used. Tumors were then established in nude mice by subcutaneous injection of 2×10^6 B16F1 cells. Five mice were used in each set of experiments. The mice were maintained under pathogen-free conditions. When the subcutaneous tumor was clearly visible, the TAT-SMAR1 WT (P44) peptide treatment was started. The P44 peptide was subcutaneously injected proximal to the tumor sites at a dose of 200 μg/mouse thrice a week. The treatment was administered for 4 weeks. For control treatment, TAT PTD alone and TAT SMAR1 RS mutant peptide (SM) were injected in the same manner as the P44 peptide.

Assay [3] concerns tumor vasculature of B16F1-induced tumors. Description: Hematoxylin and eosin histopathology of B16F1-induced tumors. The class given is in vivo, mouse. The conditions noted are these: tumors excised from treated mice. The text has this: (§1) Histopathological changes in the subcutaneous tumors: To analyze the tumor vasculature of TAT PTD, SM treated and P44 treated mice, the tumor sections were stained with HE. […] In SM treated tumors, due to compressed vessels, the shape of RBCs were also distorted (FIG. 7A, lower right panel, arrow marked). […] The presence of hypoxic cells is a hallmark of cancer (Brown, J. M., and Wilson, W. R. (2004) Nat. Rev. Cancer 4, 437-447; Minchinton, A. I., and Tannock, I. F. (2006) Nat. Rev. Cancer 6, 583-592). Cellular responses to hypoxia are triggered by the hypoxia inducible factor-1 alpha (HIF-1α) that is known to restore tissue homeostasis in hypoxic conditions (Semenza, G. L. (2000) Genes Dev. 14, 1983-1991). To determine the status of HIF-1α expression, immunohistochemical analysis was performed on tumor sections obtained from SM and P44 treated mice by using antibody against HIF-1 α. […] All these observations implicate the significance of P44 peptide in restoring tissue architecture in tumor cells and thus potentiates its role as a tumor regressor.
(§2) FIG. 7. Histopathological changes in B16F1-induced tumors. A, Hematoxylin and eosin staining of tumor sections excised from mice treated with either P44 (upper panel) or SM (lower panel) peptide. […] The images have been recorded at 20× and 40×. B, Immunohistochemistry of paraffin embedded tumor sections from P44 treated as well as, SM treated mice. After antigen unmasking, sections were stained with HIF-1α antibody (middle panel) and detected using Cy-3 conjugated mouse immunoglobulin. Sections were counterstained with DAP1 for nuclear localization (left panel). Right panel corresponds to the merged image.

For a further assay, the system named is HIF-1α. Description: Immunohistochemical staining of tumor sections for HIF-1α. Format: in vivo, mouse. The following applies: tumors excised from treated mice.
Source text: as §1, §2
Immunohistochemical staining of tumor sections: Tumor sections in paraffin-embedded blocks were transferred to poly-L-lysine coated glass slides and air-dried overnight at 37° C. They were dewaxed in xylene (three changes) and […] in graded series of decreasing ethanol concentrations. […] Thereafter, detected using cy-3 fluorescence labeled secondary antibody. […]

T1 sequence (P04637 whole entry): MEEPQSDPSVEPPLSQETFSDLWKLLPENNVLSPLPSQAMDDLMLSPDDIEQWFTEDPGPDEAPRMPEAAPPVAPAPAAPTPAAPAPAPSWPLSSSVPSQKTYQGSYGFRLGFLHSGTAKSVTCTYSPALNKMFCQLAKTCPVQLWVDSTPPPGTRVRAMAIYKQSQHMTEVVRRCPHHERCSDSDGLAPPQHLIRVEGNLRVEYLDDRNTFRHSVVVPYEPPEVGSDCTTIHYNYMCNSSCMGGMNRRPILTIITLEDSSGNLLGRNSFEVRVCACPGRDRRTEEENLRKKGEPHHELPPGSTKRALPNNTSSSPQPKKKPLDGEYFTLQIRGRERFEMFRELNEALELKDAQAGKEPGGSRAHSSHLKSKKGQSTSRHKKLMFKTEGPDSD

Take “YGRKKRRQRRR [TAT PTD, reference compound]”: the “phosphorylation of serine-15 residue of p53” value in assay [1] was “no phosphorylation”. Also, in assay [2], the “tumor weight after excision” value was in the range of 1.5 to 3 g. Also, in assay [3], the “tumor vascular architecture (HE staining)” value was “poorly organized vascular architecture and compressed blood vessels”. Also, in the assay with HIF-1α, the “HIF-1α expression in tumor sections” value is reported as “increased expression of HIF-1α”.
